One assay has as its target T1, p110α Type Ia human PI3K (Homo sapiens, UniProt P42336).
T1 construct: full length DNA of each of the p110α, p110β and p110δ Type Ia human PI3K p110 isoforms; 6-His; made in house; Grp1 PH domain made in E. coli
Description: In vitro PI3K enzyme assay (AlphaScreen), Test (a). The format is biochemical. Particulars: read-out: IC50 versus p110α Type Ia human PI3K. An excerpt:
The assay used AlphaScreen technology (Gray et al., Analytical Biochemistry, 2003, 313: 234-245) to determine the ability of test compounds to inhibit phosphorylation by recombinant Type I PI3K enzymes of the lipid PI(4,5)P2.
DNA fragments encoding human PI3K catalytic and regulatory subunits were isolated from cDNA libraries using standard molecular biology and PCR cloning techniques. The selected DNA fragments were used to generate baculovirus expression vectors. In particular, full length DNA of each of the p110α, p110β and p110δ Type Ia human PI3K p110 isoforms (EMBL Accession Nos. HSU79143, S67334, Y10055 for p110α, p110β and p110δ respectively) were sub-cloned into a pDEST10 vector (Invitrogen Limited, Fountain Drive, Paisley, UK). The vector is a Gateway-adapted version of Fastbac 1 containing a 6-His epitope tag. […]
Biotinylated-DiC8-PI(3,4,5)P3 (50 nM; Cell Signals Inc., Catalogue No. 107), recombinant purified GST-Grp1 PH protein (2.5 nM) and AlphaScreen Anti-GST donor and acceptor beads (100 ng; Packard Bioscience Limited, Station Road, Pangbourne, Berkshire, UK, Catalogue No. 6760603M) were added and the assay plates were left for about 5 to 20 hours at room temperature in the dark. The resultant signals arising from laser light excitation at 680 nm were read using a Packard AlphaQuest instrument. […]

The test system of assay [1] is phosphorylation of Serine 473 in Akt in MDA-MB-468 human breast adenocarcinoma cell line. Kind of assay: In vitro phospho-Ser473 Akt assay, Test (c). Format: cell-based. Particulars: MDA-MB-468 cells, read-out: IC50 (inhibition of Serine 473 phosphorylation in Akt). The method, then:
This assay determines the ability of test compounds to inhibit phosphorylation of Serine 473 in Akt as assessed using Acumen Explorer technology (TTP LabTech Limited, Royston, Herts, SG8 6EE, UK), a plate reader that can be used to rapidly quantitate features of images generated by laser-scanning.
A MDA-MB-468 human breast adenocarcinoma cell line (LGC Promochem, Teddington, Middlesex, UK, Catalogue No. HTB-132) was routinely maintained at 37° C. with 5% CO2 up to a confluency of 70-90% in DMEM containing 10% FCS and 1% L-glutamine.
For the assay, the cells were detached from the culture flask using ‘Accutase’ (Innovative Cell Technologies Inc., San Diego, Calif., USA; Catalogue No. AT104) using standard tissue culture methods and resuspended in media to give 5.5×10^4 cells per ml. Aliquots (90 μl) were seeded into each of the inner 60 wells of a black ‘Costar’ 96-well plate (Corning Inc., NY, USA; Catalogue No. 3904) to give a density of ˜5000 cells per well. Aliquots (90 μl) of culture media were placed in the outer wells to prevent edge effects. [An alternative cell handling procedure involved the maintenance of the cells in a ‘SelecT’ robotic device (The Automation Partnership, Royston, Herts SG8 5WY, UK). Cells were resuspended in media to give 5×10^4 cells per ml. Aliquots (100 μl) were seeded into the wells of a black ‘Costar’ 96-well plate.] […]

Molecules are shown by their SMILES.

T1 sequence (P42336 whole entry, the tested form may be a part, canonical isoform): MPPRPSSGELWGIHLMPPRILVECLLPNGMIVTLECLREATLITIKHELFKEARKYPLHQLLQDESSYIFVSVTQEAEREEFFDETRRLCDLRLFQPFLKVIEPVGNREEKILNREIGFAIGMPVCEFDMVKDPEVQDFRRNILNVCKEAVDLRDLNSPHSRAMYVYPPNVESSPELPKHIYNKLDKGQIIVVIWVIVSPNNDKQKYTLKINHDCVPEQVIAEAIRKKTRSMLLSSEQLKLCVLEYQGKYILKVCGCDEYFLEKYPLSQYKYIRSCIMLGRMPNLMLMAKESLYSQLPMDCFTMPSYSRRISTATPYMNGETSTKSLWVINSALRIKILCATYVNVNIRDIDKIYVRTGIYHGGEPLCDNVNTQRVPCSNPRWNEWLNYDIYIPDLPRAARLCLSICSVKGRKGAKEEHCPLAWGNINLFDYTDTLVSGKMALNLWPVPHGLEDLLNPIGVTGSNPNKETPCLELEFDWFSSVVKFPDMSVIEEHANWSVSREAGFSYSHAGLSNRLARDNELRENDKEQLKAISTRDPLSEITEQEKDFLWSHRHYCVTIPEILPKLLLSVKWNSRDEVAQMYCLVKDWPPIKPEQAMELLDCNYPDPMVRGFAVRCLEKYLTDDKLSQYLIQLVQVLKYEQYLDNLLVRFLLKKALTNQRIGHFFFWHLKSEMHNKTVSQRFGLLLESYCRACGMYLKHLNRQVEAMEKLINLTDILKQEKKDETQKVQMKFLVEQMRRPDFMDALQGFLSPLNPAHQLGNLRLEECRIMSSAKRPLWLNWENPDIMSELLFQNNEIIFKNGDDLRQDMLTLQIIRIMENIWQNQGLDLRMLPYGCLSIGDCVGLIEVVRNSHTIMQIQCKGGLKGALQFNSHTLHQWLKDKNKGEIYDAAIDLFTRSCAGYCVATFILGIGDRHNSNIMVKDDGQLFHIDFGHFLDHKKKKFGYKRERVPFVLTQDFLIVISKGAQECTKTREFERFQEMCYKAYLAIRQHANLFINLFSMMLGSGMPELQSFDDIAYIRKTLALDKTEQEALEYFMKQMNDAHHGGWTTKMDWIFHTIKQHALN
T1 sequence (P27986 whole entry partner, the tested form may be a part, canonical isoform): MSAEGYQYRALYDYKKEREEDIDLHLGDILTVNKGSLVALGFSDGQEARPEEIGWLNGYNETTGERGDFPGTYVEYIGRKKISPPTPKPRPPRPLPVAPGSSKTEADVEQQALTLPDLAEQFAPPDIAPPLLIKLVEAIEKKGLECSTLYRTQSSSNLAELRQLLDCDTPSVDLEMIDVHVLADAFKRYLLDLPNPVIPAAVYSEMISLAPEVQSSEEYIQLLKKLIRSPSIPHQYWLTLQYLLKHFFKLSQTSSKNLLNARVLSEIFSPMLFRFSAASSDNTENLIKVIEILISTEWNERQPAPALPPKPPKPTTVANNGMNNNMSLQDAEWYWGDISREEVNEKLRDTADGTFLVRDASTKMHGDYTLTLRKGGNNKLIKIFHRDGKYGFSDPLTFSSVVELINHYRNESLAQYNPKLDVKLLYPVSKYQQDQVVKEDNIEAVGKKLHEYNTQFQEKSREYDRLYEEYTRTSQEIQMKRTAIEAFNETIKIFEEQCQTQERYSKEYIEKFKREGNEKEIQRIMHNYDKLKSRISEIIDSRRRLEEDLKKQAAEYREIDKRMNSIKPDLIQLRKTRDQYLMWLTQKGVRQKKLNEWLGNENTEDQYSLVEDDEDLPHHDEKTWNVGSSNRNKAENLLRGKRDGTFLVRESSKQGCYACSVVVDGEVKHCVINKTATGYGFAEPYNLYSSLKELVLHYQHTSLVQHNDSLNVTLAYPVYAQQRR

With `NCC(=O)N1CCN(c2cc(N3CCOCC3)nc(-n3c(C(F)F)nc4ccccc43)n2)CC1` [Example 1, 2-(2-difluoromethylbenzimidazol-1-yl)-4-(4-glycylpiperazin-1-yl)-6-morpholinopyrimidine], the IC50 on p110α Type Ia human PI3K is around 100 nM; in assay [1], around 10 nM.

What is called IC50 is the concentration that gives 50% inhibition.

The values above are taken from patent US20090270390A1, “PYRIMIDINE DERIVATIVES” (AstraZeneca, priority 2006, published 2009).
